{"source": "patent EP0998912B1", "about": "“Use of peracids for hand's disinfection or decontamination” (Bode Chemie GmbH & Co., priority 1998, dated 2000)", "key": {"[1]": {"test_system": "Bakterien", "assay": "Comparative trials on germ reduction by aqueous MMPP solutions", "details": "0,1 bis 10 gewichts-%-ige aqueous solutions, about 30 Sekunden Einwirkzeit"}, "[2]": {"assay": "Skin tolerance observed during the hand disinfection and decontamination tests", "assay_type": "in vivo", "description": "(§1) Mit dieser Lösung wurde der Test zur chirurgischen Händedesinfektion entsprechend den Richtlinien der DGHM (Stand: 01.01.1981, Versuch II-2) durchgeführt. Bei diesem Versuch werden die Hände durch Einreiben 3 Minuten feucht gehalten und gegen ein Standardalkohol (n-Propanol 60 Vol.-%) nach 5 Minuten getestet. Der Test gilt als bestanden, wenn die residente Hautflora durch das Testpräparat gleich oder stärker reduziert wird als durch den Standard.\nMit einer solchen Lösung, die 4 Gew.-% des Wirkstoffes MMPP enthält, wurde ein Test zur Händedekontamination nach DGHM (Stand: 08.07.1986, Versuch 11) durchgeführt. Bei diesem Verfahren wird die Fähigkeit getestet, die transiente Hautflora zu reduzieren. Der Test gilt als bestanden, wenn das Präparat innerhalb von 30 Sekunden eine E. coli-Kontamination um 3,5 logarithmische Stufen entsprechend 99,9684 % reduziert.\nMit diesen Pasten wurden entsprechend Beispiel 2 die Versuche zur Händedekontamination durchgeführt. Die Hände werden 30 Sekunden mit 1,5 ml der Pasten eingerieben und dann mit Wasser entsprechend der Vorschrift aufgeschäumt.\nMit der Zubereitung aus Beispiel 2 wurde der Test zur hygienischen Händedesinfektion gemäß den Richtlinien der DGHM (Stand: 01.01.1981, Versuch II-1) durchgeführt. […]"}, "[3]": {"test_system": "transiente Flora (E. coli)", "assay": "Hygienic hand disinfection test, DGHM guidelines (01.01.1981, Versuch II-1)", "assay_type": "in vivo", "details": "1 bis 10 gewichts-%-ige purely aqueous solutions, 30 bis 60 Sekunden; compared with requirements for 60 Volumen-% Ethanol or Isopropanol", "description": "Mit der Zubereitung aus Beispiel 2 wurde der Test zur hygienischen Händedesinfektion gemäß den Richtlinien der DGHM (Stand: 01.01.1981, Versuch II-1) durchgeführt. Bei diesem Versuch muß die transiente Flora (E. coli) in 30 Sekunden gleich oder stärker reduziert werden als mit einem Standardalkohol (Isopropanol 60 Vol.-%) in 1 Minute."}, "[4]": {"test_system": "residente Hautflora", "assay": "Surgical hand disinfection test, DGHM guidelines (01.01.1981, Versuch II-2)", "assay_type": "in vivo", "details": "5 gew.-%ige solution in demineralised water, hands kept moist 3 Minuten; standard n-Propanol 60 Vol.-% 5 Minuten", "description": "as §1"}}}
{"smiles": "O=C(O)c1ccccc1C(=O)OO", "note": "[MMPP, Magnesium-Monoperoxidophthalat]", "values": [{"measurement": "Keimreduktion", "setting": "[1]", "result": "> 4", "unit": "log-Stufen"}, {"measurement": "Keimreduktion", "setting": "[1]; equivalent of the log steps", "result": "> 99,99%"}, {"measurement": "Hautverträglichkeit", "setting": "[2]; 0,1 bis 10 gewichts-%-ige aqueous solutions, Vergleichsversuche", "result": "hervorragend hautverträglich"}, {"measurement": "Hautunverträglichkeiten", "setting": "[2]; Beispiel 1, 5 gew.-%ige MMPP-Lösung, surgical hand disinfection", "result": "keine Hautunverträglichkeiten"}, {"measurement": "Keimreduktion bei der hygienischen Händedesinfektion", "setting": "[3]", "result": "vergleichbare Keimreduktion"}, {"measurement": "Reduktion der residenten Hautflora gleich oder stärker als durch den Standard", "setting": "[4]", "result": "erfüllt diese Anforderungen"}]}
